The series can be described thus: Assay (III) ThT fibrillation assay for physical stability. The conditions noted are these: 250 μM in 10 mM HEPES buffer, 37° C., shaking 960 rpm. In kind it is physicochemical. In a few lines: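 Glucagon derivative at 250 μM in 10 mM HEPES pH 7.5 with 1 μM ThT was incubated at 37 °C under 960 rpm orbital shaking. Fluorescence (ex 444/em 485 nm) was read every 20 min and fitted for lag time (t0−2τ) and kapp (1/τ). Recovery was soluble peptide after centrifugation/filtration, by RP-HPLC, as percent of initial.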

Starred links: 1 amine or outer side, 2 acyl side, 3 side chain; linkers in the order of their positions; H or OH if unused. Non-standard residues stand in square brackets, D forms with d. Residues, ends and D or L forms follow the SMILES beside them. Groups on a side chain read outwards from the residue. *: point of attachment. C18 diacid = O=C(O)CCCCCCCCCCCCCCCCC(=O)*; γGlu = O=C(O)[C@H](CCC(=O)[*:2])N[*:1]; Ac4c = NC1(C(=O)O)CCC1; AEEA = NCCOCCOCC(=O)O; Aib = CC(C)(N)C(=O)O

On to `CC[C@H](C)[C@H](NC(=O)[C@H](CC(C)C)NC(=O)[C@H](Cc1c[nH]c2ccccc12)NC(=O)[C@H](CCC(N)=O)NC(=O)[C@@H](NC(=O)[C@H](Cc1ccccc1)NC(=O)[C@H](CCC(=O)O)NC(=O)[C@H](CCCNC(=N)N)NC(=O)[C@H](C)NC(=O)[C@H](CCCNC(=N)N)NC(=O)[C@H](CCCNC(=N)N)NC(=O)[C@H](CO)NC(=O)[C@H](CCC(=O)O)NC(=O)[C@H](CC(C)C)NC(=O)[C@H](Cc1ccc(O)cc1)NC(=O)[C@H](CCCCN)NC(=O)[C@H](CO)NC(=O)[C@H](CC(C)C)NC(=O)[C@H](CC(=O)O)NC(=O)[C@H](CO)NC(=O)[C@@H](NC(=O)[C@H](Cc1ccccc1)NC(=O)[C@@H](NC(=O)CNC(=O)[C@H](CCC(N)=O)NC(=O)C1(NC(=O)[C@@H](N)Cc2c[nH]cn2)CCC1)[C@@H](C)O)[C@@H](C)O)C(C)C)C(=O)N[C@@H](CCCCNC(=O)CNC(=O)[C@H](CO)NC(=O)[C@H](CCC(=O)O)NC(=O)CNC(=O)[C@H](CO)NC(=O)CC[C@H](NC(=O)CC[C@H](NC(=O)CCCCCCCCCCCCCCCCC(=O)O)C(=O)O)C(=O)O)C(=O)N[C@H](C(N)=O)[C@@H](C)O` [Chem. 16, N^ε28-[2-[[(2S)-2-[[(2S)-4-carboxy-2-[[2-[[(2S)-2-[[(4S)-4-carboxy-4-[[(4S)-4-carboxy-4-(17-carboxyheptadecanoylamino)butanoyl]amino]butanoyl]amino]-3-hydroxypropanoyl]amino]acetyl]amino]butanoyl]amino]-3-hydroxypropanoyl]amino]acetyl]-[Acb2,Leu10,Glu15,Arg20,Glu21,Ile27,Lys28]-Glucagon amide] (HELM PEPTIDE1{H.[O=C(C1(N[*:1])CCC1)[*:2]].Q.G.T.F.T.S.D.L.S.K.Y.L.E.S.R.R.A.R.E.F.V.Q.W.L.I.K.T.[am]}|PEPTIDE2{[O=C(O)CCCCCCCCCCCCCCCCC(=O)[*:2]].[gGlu].[gGlu].S.G.E.S.G}$PEPTIDE1,PEPTIDE2,28:R3-8:R2$$$V2.0), for which the “ThT Assay Lag time (h) [Assay (III), pH 7.5]” value (“ThT Assay Lag time (h)” below) was determined as 16.0 h.

Regarding `CC[C@H](C)[C@H](NC(=O)[C@H](CC(C)C)NC(=O)[C@H](Cc1c[nH]c2ccccc12)NC(=O)[C@H](CCC(N)=O)NC(=O)[C@@H](NC(=O)[C@H](Cc1ccccc1)NC(=O)[C@H](CCC(=O)O)NC(=O)[C@H](CCCNC(=N)N)NC(=O)[C@H](C)NC(=O)[C@H](CCCNC(=N)N)NC(=O)[C@H](CCCNC(=N)N)NC(=O)[C@H](CO)NC(=O)[C@H](CCC(=O)O)NC(=O)[C@H](CC(C)C)NC(=O)[C@H](Cc1ccc(O)cc1)NC(=O)[C@H](CCCNC(=N)N)NC(=O)[C@H](CO)NC(=O)[C@H](CC(C)C)NC(=O)[C@H](CC(=O)O)NC(=O)[C@H](CO)NC(=O)[C@@H](NC(=O)[C@H](Cc1ccccc1)NC(=O)[C@@H](NC(=O)CNC(=O)[C@H](CCC(N)=O)NC(=O)C1(NC(=O)[C@@H](N)Cc2c[nH]cn2)CCC1)[C@@H](C)O)[C@@H](C)O)C(C)C)C(=O)N[C@@H](CCCCNC(=O)CC[C@H](NC(=O)CC[C@H](NC(=O)COCCOCCNC(=O)COCCOCCNC(=O)CC[C@H](NC(=O)CC[C@H](NC(=O)CCCCCCCCCCCCCCCCC(=O)O)C(=O)O)C(=O)O)C(=O)O)C(=O)O)C(=O)N[C@H](C(N)=O)[C@@H](C)O` [Chem. 17, N^ε28-[(4S)-4-carboxy-4-[[(4S)-4-carboxy-4-[[2-[2 [2-[[2-[2-[2-[[(4S)-4-carboxy-4-[[(4S)-4-carboxy-4-(17-carboxyheptadecanoylamino)butanoyl]amino]butanoyl]amino]ethoxy]ethoxy]acetyl]amino]ethoxy]ethoxy]acetyl]amino]butanoyl]amino]butanoyl]-[Acb2,Leu10,Arg12,Glu15,Arg20,Glu21,Ile27,Lys28]-Glucagon amide] (H-H[Ac4c]QGTFTSDLSRYLESRRAREFVQWLIK([γGlu-γGlu-AEEA-AEEA-γGlu-γGlu-C18 diacid])T-NH2), the “ThT Assay Lag time (h)” value is 12.3 h.

For `CC[C@H](C)[C@H](NC(=O)[C@H](CC(C)C)NC(=O)[C@H](Cc1c[nH]c2ccccc12)NC(=O)[C@H](CCC(N)=O)NC(=O)[C@@H](NC(=O)[C@H](Cc1ccccc1)NC(=O)[C@H](CCC(=O)O)NC(=O)[C@H](CCCNC(=N)N)NC(=O)[C@H](C)NC(=O)[C@H](CCCNC(=N)N)NC(=O)[C@H](CCCNC(=N)N)NC(=O)[C@H](CO)NC(=O)[C@H](CCC(=O)O)NC(=O)[C@H](CC(C)C)NC(=O)[C@H](Cc1ccc(O)cc1)NC(=O)[C@H](CCCCN)NC(=O)[C@H](CO)NC(=O)[C@H](CC(C)C)NC(=O)[C@H](CC(=O)O)NC(=O)[C@H](CO)NC(=O)[C@@H](NC(=O)[C@H](Cc1ccccc1)NC(=O)[C@@H](NC(=O)CNC(=O)[C@H](CCC(N)=O)NC(=O)C1(NC(=O)[C@@H](N)Cc2c[nH]cn2)CCC1)[C@@H](C)O)[C@@H](C)O)C(C)C)C(=O)N[C@@H](CCCCNC(=O)COCCOCCNC(=O)COCCOCCNC(=O)CC[C@H](NC(=O)CC[C@H](NC(=O)CCCCCCCCCCCCCCCCC(=O)O)C(=O)O)C(=O)O)C(=O)N[C@H](C(N)=O)[C@@H](C)O` [Chem. 18, N^ε28-[2-[2-[2-[[2-[2-[2-[[(4S)-4-carboxy-4-[[(4S)-4-carboxy-4-(17-carboxyheptadecanoylamino)butanoyl]amino]butanoyl]amino]ethoxy]ethoxy]acetyl]amino]ethoxy]ethoxy]acetyl]-[Acb2,Leu10,Glu15,Arg20,Glu21,Ile27,Lys28]-Glucagon amide] (H-H[Ac4c]QGTFTSDLSKYLESRRAREFVQWLIK([AEEA-AEEA-γGlu-γGlu-C18 diacid])T-NH2), the “ThT Assay Lag time (h)” value worked out at 5.0 h.

As to `CC[C@H](C)[C@H](NC(=O)[C@H](CC(C)C)NC(=O)[C@H](Cc1c[nH]c2ccccc12)NC(=O)[C@H](CCC(N)=O)NC(=O)[C@@H](NC(=O)[C@H](Cc1ccccc1)NC(=O)[C@H](CC(=O)O)NC(=O)[C@H](CCCNC(=N)N)NC(=O)[C@H](C)NC(=O)[C@H](CCCNC(=N)N)NC(=O)[C@H](CCCNC(=N)N)NC(=O)[C@H](C)NC(=O)[C@H](CC(=O)O)NC(=O)[C@H](CC(C)C)NC(=O)[C@H](Cc1ccc(O)cc1)NC(=O)[C@H](CCCCN)NC(=O)[C@H](CO)NC(=O)[C@H](CC(C)C)NC(=O)[C@H](CC(=O)O)NC(=O)[C@H](CO)NC(=O)[C@@H](NC(=O)[C@H](Cc1ccccc1)NC(=O)[C@@H](NC(=O)CNC(=O)[C@H](CCC(N)=O)NC(=O)C(C)(C)NC(=O)[C@@H](N)Cc1c[nH]cn1)[C@@H](C)O)[C@@H](C)O)C(C)C)C(=O)N[C@@H](CC(N)=O)C(=O)N[C@@H](CCCCNC(=O)CC[C@H](NC(=O)CC[C@H](NC(=O)COCCOCCNC(=O)COCCOCCNC(=O)CC[C@H](NC(=O)CCCCCCCCCCCCCCCCC(=O)O)C(=O)O)C(=O)O)C(=O)O)C(N)=O` [Chem. 20, N^ε29-[(4S)-4-carboxy-4-[[(4S)-4-carboxy-4-[[2-[2-[2-[[2-[2-[2-[[(4S)-4-carboxy-4-(17-carboxyheptadecanoylamino)butanoyl]amino]ethoxy]ethoxy]acetyl]amino]ethoxy]ethoxy]acetyl]amino]butanoyl]amino]butanoyl]-[Aib2,Leu10,Ala16,Arg20,Ile27,Lys29]-Glucagon amide] (H-H[Aib]QGTFTSDLSKYLDARRARDFVQWLINK([γGlu-γGlu-AEEA-AEEA-γGlu-C18 diacid])-NH2; N-terminus assumed), the “ThT Assay Lag time (h)” value is recorded as 45.0 h.

On to `CC[C@H](C)[C@H](NC(=O)[C@H](CC(C)C)NC(=O)[C@H](Cc1c[nH]c2ccccc12)NC(=O)[C@H](CCC(N)=O)NC(=O)[C@@H](NC(=O)[C@H](Cc1ccccc1)NC(=O)[C@H](CCC(=O)O)NC(=O)[C@H](CCCNC(=N)N)NC(=O)[C@H](C)NC(=O)[C@H](CCCNC(=N)N)NC(=O)[C@H](CCCNC(=N)N)NC(=O)[C@H](C)NC(=O)[C@H](CC(=O)O)NC(=O)[C@H](CC(C)C)NC(=O)[C@H](Cc1ccc(O)cc1)NC(=O)[C@H](CCCCN)NC(=O)[C@H](CO)NC(=O)[C@H](CC(C)C)NC(=O)[C@H](CC(=O)O)NC(=O)[C@H](CO)NC(=O)[C@@H](NC(=O)[C@H](Cc1ccccc1)NC(=O)[C@@H](NC(=O)CNC(=O)[C@H](CCC(N)=O)NC(=O)C(C)(C)NC(=O)[C@@H](N)Cc1c[nH]cn1)[C@@H](C)O)[C@@H](C)O)C(C)C)C(=O)N[C@@H](CC(N)=O)C(=O)N[C@@H](CCCCNC(=O)CC[C@H](NC(=O)CC[C@H](NC(=O)COCCOCCNC(=O)COCCOCCNC(=O)CC[C@H](NC(=O)CCCCCCCCCCCCCCCCC(=O)O)C(=O)O)C(=O)O)C(=O)O)C(N)=O` [Chem. 21, N^ε29-[(4S)-4-carboxy-4-[[(4S)-4-carboxy-4-[[2-[2-[2-[[2-[2-[2-[[(4S)-4-carboxy-4-(17-carboxyheptadecanoylamino)butanoyl]amino]ethoxy]ethoxy]acetyl]amino]ethoxy]ethoxy]acetyl]amino]butanoyl]amino]butanoyl]-[Aib2,Leu10,Ala16,Arg20,Glu21,Ile27,Lys29]-Glucagon amide] (H-H[Aib]QGTFTSDLSKYLDARRAREFVQWLINK([γGlu-γGlu-AEEA-AEEA-γGlu-C18 diacid])-NH2; N-terminus assumed), for which the “ThT Assay Lag time (h)” value amounted to 45.0 h.

For the origin of these results see patent US10570184B2, “GLP-1/glucagon receptor co-agonists for medical use” (Novo Nordisk A/S, priority 2014, dated 2020).
